Reference: ChEMBL document CHEMBL1201862, “PubChem BioAssay data set” (2004)
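Test compounds were applied to cells in 96-well plates for 48 hours at 5 doses. GI50: concentration for 50% inhibition of growth.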 The source made the active and inactive calls. Cut-off read from the data, not from the text of the source: active = GI50 up to about 1.1 µM and inactive = higher.

What was measured:
Experiment in all cases: NCI-60 cell line screen, 48 h
[1] = system: MCF7
[2] = system: HT-29
[3] = system: NCI-H460
[4] = system: MDA-MB-231
[5] = system: 786-0
[6] = system: SK-OV-3
[7] = system: SN12C
[8] = system: SF-268
[9] = system: SK-MEL-5
[10] = system: DU-145
[11] = system: HOP-92
[12] = system: LOX IMVI
[13] = system: HCT-15
[14] = system: CCRF-CEM
[15] = system: SR
[16] = system: SK-MEL-2
[17] = system: SF-295
[18] = system: SNB-75
[19] = system: NCI-H522
[20] = system: NCI/ADR-RES

| Compound | GI50 [1] | GI50 [2] | GI50 [3] | GI50 [4] | GI50 [5] | GI50 [6] | GI50 [7] | GI50 [8] | GI50 [9] | GI50 [10] | GI50 [11] | GI50 [12] | GI50 [13] | GI50 [14] | GI50 [15] | GI50 [16] | GI50 [17] | GI50 [18] | GI50 [19] | GI50 [20] |
| --- | --- | --- | --- | --- | --- | --- | --- | --- | --- | --- | --- | --- | --- | --- | --- | --- | --- | --- | --- | --- |
| CC(C)C12CCC3(CCC4C(C)(C(=O)O)CCCC4(C)C3C1)C(CN)C2 (stereo not given) | 29.5 µM (inactive) | 23.4 µM (inactive) | 21.5 µM (inactive) | 58.7 µM (inactive) | 20.2 µM (inactive) | > 100 µM (inactive) | 20.8 µM (inactive) | 54.8 µM (inactive) | 27.7 µM (inactive) | 38.6 µM (inactive) | 55.6 µM (inactive) | 18.7 µM (inactive) | 31.9 µM | 0.388 µM (active) | 25.9 µM (inactive) | 42.9 µM (inactive) | 51.2 µM (inactive) | 88.5 µM (inactive) | 23.8 µM (inactive) | 37.6 µM (inactive) |
| O=C(NC12CC3CC(CC(C3)C1)C2)n1cnc2c(Cl)ncnc21 | > 100 µM (inactive) | 27 µM (inactive) | 28 µM (inactive) | 42.8 µM (inactive) | > 100 µM (inactive) | 34.3 µM (inactive) | > 100 µM (inactive) | 22.6 µM (inactive) | 24.2 µM (inactive) | 24.3 µM (inactive) | 34.2 µM (inactive) | 18.7 µM (inactive) | 35 µM | 7.71 µM (inactive) | 10.8 µM (inactive) | 28.3 µM (inactive) | 59.8 µM (inactive) | 27.4 µM (inactive) | 27.9 µM (inactive) | > 100 µM (inactive) |
| Cc1cc(C)nc(NS(=O)(=O)c2ccc(NC(=O)c3ccc4nc5ccccc5c(Nc5ccc(S(N)(=O)=O)cc5)c4c3)cc2)n1 | 49.2 µM (inactive) | 75.3 µM (inactive) | > 100 µM (inactive) | 94.2 µM (inactive) | > 100 µM (inactive) | > 100 µM (inactive) | > 100 µM (inactive) | > 100 µM (inactive) | > 100 µM (inactive) | > 100 µM (inactive) | 51.3 µM (inactive) | 45.6 µM (inactive) | > 100 µM | 28.2 µM (inactive) | 40.1 µM (inactive) | 42.9 µM (inactive) | > 100 µM (inactive) | > 100 µM (inactive) | 34.2 µM (inactive) | > 100 µM (inactive) |
| C[C@]12CCC(=O)[C@@H](CCC3=CC(=O)C=CC3=O)[C@@H]1CCC2=O | 13.9 µM (inactive) | 25.6 µM (inactive) | 13.2 µM (inactive) | 20.3 µM (inactive) | 10 µM (inactive) | 26.1 µM (inactive) | 37.4 µM (inactive) | 14.3 µM (inactive) | 6.32 µM (inactive) | 17.9 µM (inactive) | 14.2 µM (inactive) | 11 µM (inactive) | 17.4 µM | 1.87 µM (inactive) | 0.0102 µM (active) | 11.7 µM (inactive) | 17.8 µM (inactive) | 5.48 µM (inactive) | 2.19 µM (inactive) | 38 µM (inactive) |
| COC(=O)C(Cc1ccccc1)NC(=O)c1ccc(CNC(=S)NCc2cccc(CNC(=S)NCc3ccccc3)c2)cc1 (stereo not given) | > 32.8 µM (inactive) | > 33.7 µM (inactive) | > 36.5 µM (inactive) | > 34 µM (inactive) | > 34.6 µM (inactive) | > 33.9 µM (inactive) | > 31.8 µM (inactive) | 18.3 µM (inactive) | > 32.6 µM (inactive) | > 35.9 µM (inactive) | > 32 µM (inactive) | > 35.6 µM (inactive) | > 35.2 µM | > 34 µM (inactive) | > 34.6 µM (inactive) | > 33.3 µM (inactive) | > 33.4 µM (inactive) | 13.4 µM (inactive) | > 32.5 µM (inactive) | > 32.7 µM (inactive) |
| Cn1c2ccccc2c2c3c(c4c5ccccc5n(C)c4c21)C(=O)NC3=O | 37.8 µM (inactive) | > 32.5 µM (inactive) | 7.6 µM (inactive) | 13.4 µM (inactive) | 3.89 µM (inactive) | 5.35 µM (inactive) | > 37.9 µM (inactive) | 97.5 µM (inactive) | 20.7 µM (inactive) | > 100 µM (inactive) | > 36.7 µM (inactive) | > 34.8 µM (inactive) | > 100 µM | > 100 µM (inactive) | < 0.01 µM (active) | > 26.5 µM (inactive) | 20.4 µM (inactive) | 29 µM (inactive) | 21.2 µM (inactive) | > 45.3 µM (inactive) |
| CC(OP(=O)(O)O)C(N)C(=O)O (stereo not given) | > 100 µM (inactive) | > 100 µM (inactive) | > 100 µM (inactive) | > 100 µM (inactive) | > 100 µM (inactive) | > 100 µM (inactive) | > 100 µM (inactive) | > 100 µM (inactive) | > 100 µM (inactive) | > 100 µM (inactive) | > 100 µM (inactive) | > 100 µM (inactive) | > 100 µM | > 100 µM (inactive) | > 100 µM (inactive) | > 100 µM (inactive) | > 100 µM (inactive) | > 100 µM (inactive) | > 100 µM (inactive) | > 100 µM (inactive) |
